Like-named read-outs stand apart in the source and are kept apart here.
Test: Pharmacokinetic study, bioavailability of folic acid encapsulated in zein nanoparticles
Assay type: in vivo, male Wistar rats
Settings: male, Wistar; for bioavailability: serum, rat, read-out: FR (relative bioavailability in percentage); for AUC: read-out: AUC (×10^4) (converted)
Method: The pharmacokinetic studies were carried out according to the rules of the ethics committee of the Institution as well as the European laws on experimental animals (86/609/EU). To that end, 20 male Wistar rats with an average weight of 200 g were subjected to normal conditions of light-darkness (12 hours-12 hours), and during the week before the study they were fed with a folic acid-deficient feed (Folic Acid Deficient Diet. TD. 95247. Harlan, USA) and water. Twelve hours before the administration of the formulations, the rats were isolated in metabolic cages without access to food, but with free access to drinking water.
The animals were divided into 4 treatment groups (5 rats per group). Only 1 mL of PBS (Phosphate Buffer, pH 7.4) was orally administered to the first of the group. The two following groups were treated with single oral doses of 1 mg/kg (200 μg/rat) of folic acid (Aditio, Panreac Quimica, Barcelona, Spain) incorporated in zein nanoparticles, or in free form (not encapsulated) dissolved in water. 1 mL of each of the different formulations dispersed in water was administered through a gastroesophageal cannula. Finally, the same dose of free folic acid (1 mg/kg) dissolved in phosphate buffer (PBS) (0.5 mL) was intravenously administered to the fourth group in the saphenous vein. Before the administration of the formulations, blood was extracted from the tail saphenous vein for the purpose of checking the baseline level of the vitamin in each rat. After the administration, a volume of blood of approximately 500 μL was extracted at different times using serum-separating tubes ([…] Microtube 1.1 mL Z-Gel). In all the cases, to prevent the pain of the rats, the extraction was carried out after anesthetizing the animal with inhalational anesthesia (isoflurane:oxygen), checking their vital signs at all times.
The blood volume was subsequently replaced by intraperitoneally administering 500 μL of physiological saline previously heated to the temperature of the animal. During this period, the condition of the animals (mobility, aggressiveness, allergic reactions and temperature) was examined, no significant changes being observed.
The quantification of folic acid in the serum samples, obtained after centrifuging the tubes with blood (6,000 rpm, 20 minutes, 20° C.), was carried out by means of an enzyme immunoassay technique. To that end, an Elisa Kit (Diagnostic automation, INC. Calabasas, Calif. USA) approved by the FDA for the quantitative determination of folic acid in foods, was used. The serum samples were quantified without prior treatment and following the manufacturer's specifications.
In all the studied cases, the differences in the serum folic acid concentrations found by both methods were less than 10%. Therefore, the enzyme immunoassay technique was chosen to quantify all the samples, since it requires a smaller amount of serum for the analysis thereof and is a simpler and quicker technique, the limit of detection of which (2 ng/mL) is much lower than that of the chromatographic technique.
The pharmacokinetic study was divided into three phases. The first of them consisted of intravenously administering 1 mg/kg of folic acid dissolved in phosphate buffer; the second of them consisted of orally administering to the rats 1 mL of phosphate buffer (PBS) to a group of 5 male Wistar rats (the baseline levels of the vitamin over time were studied in this group of rats). Finally, the third phase consisted of orally administering 1 mg/kg of (i) folic acid dissolved in water, (ii) folic acid encapsulated in zein nanoparticles to groups of rats formed by 5 animals.
After the administration, a volume of blood of approximately 500 μL was extracted at different times (0, 1, 2, 3, 8 and 24 hours) and collected in serum-separating tubes, subsequently recovering the blood volume of the animal with an equivalent volume of saline by intraperitoneal route. […]

[1] = rat serum, intravenous route, 1 mg/kg folic acid in PBS, mean ± SD, n = 5
[2] = rat serum, oral route, 1 mg/kg folic acid, mean ± SD, n = 5

SMILES: Nc1nc2ncc(CNc3ccc(C(=O)N[C@@H](CCC(=O)O)C(=O)O)cc3)nc2c(=O)[nH]1 [Non-encapsulated FA, folic acid]
- bioavailability (intravenous route, 1 mg/kg folic acid in PBS): 100%
- bioavailability (oral route, 1 mg/kg folic acid, mean ± SD, n = 5): 36.3 ± 7.2%
- Cmax [1]: 4230 ± 1650 ng/mL
- MRT [1]: 57.8 min
- AUC [1]: 3580 ng·h/mL
- Cmax [2]: 191 ± 41 ng/mL
- MRT [2]: 384 min
- Tmax [2]: 58.8 min
- AUC [2]: 1300 ng·h/mL
